Assay results published in article PMC8954831, “Design, Synthesis, Molecular Docking, and Biological Evaluation of Pyrazole Hybrid Chalcone Conjugates as Potential Anticancer Agents and Tubulin Polymerization Inhibitors” (Pharmaceuticals, 2022).
Where two headings read alike, the source gives them in different places. Values belong to the molecule of their own block, whether it stands above or below them.

Key:
[1] = target: tubulin (purified brain tubulin) (Sus scrofa, UniProt P02550+P02554); assay: In vitro tubulin polymerization assay (fluorescence); format: biochemical; conditions: for inhibition at 10 µM: read-out: % Inhibition of Tubulin Polymerization at 10 µM; for inhibition at 3 µM: read-out: % Inhibition of Tubulin Polymerization
Chain of tubulin (purified brain tubulin) (P02550 whole entry): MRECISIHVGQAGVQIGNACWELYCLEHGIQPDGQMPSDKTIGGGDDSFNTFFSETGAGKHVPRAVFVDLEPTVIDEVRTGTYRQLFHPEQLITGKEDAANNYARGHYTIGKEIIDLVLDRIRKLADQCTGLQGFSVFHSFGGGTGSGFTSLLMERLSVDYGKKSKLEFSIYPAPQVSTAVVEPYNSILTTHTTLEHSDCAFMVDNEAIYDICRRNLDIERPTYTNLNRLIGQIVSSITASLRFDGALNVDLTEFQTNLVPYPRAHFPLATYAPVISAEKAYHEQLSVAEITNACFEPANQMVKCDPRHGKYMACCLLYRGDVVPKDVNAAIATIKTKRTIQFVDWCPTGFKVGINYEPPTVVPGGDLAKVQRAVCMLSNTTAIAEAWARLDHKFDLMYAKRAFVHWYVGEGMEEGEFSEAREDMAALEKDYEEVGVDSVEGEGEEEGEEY
Chain of tubulin (purified brain tubulin) (P02554 whole entry): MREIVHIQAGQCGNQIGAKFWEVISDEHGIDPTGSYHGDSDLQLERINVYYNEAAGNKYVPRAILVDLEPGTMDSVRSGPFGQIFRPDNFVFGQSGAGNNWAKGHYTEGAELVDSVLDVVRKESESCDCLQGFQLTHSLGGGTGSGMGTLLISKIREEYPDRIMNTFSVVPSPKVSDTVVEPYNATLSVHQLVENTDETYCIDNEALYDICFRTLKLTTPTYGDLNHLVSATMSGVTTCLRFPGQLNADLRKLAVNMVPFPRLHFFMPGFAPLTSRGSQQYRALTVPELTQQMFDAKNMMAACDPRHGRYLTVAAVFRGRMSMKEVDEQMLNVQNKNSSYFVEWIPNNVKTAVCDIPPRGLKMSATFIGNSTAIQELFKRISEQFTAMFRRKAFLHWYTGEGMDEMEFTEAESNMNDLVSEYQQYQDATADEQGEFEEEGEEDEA
Experimental: The α and β tubulin subunits are recognized by heterodimers and self-assemble into a stable microtubule in a time-dependent manner. Assessment of the inhibitory effect of new pyrazolic chalcone conjugates on tubulin polymerization was also carried out. The progression of tubulin polymerization was thus examined by monitoring the increase in the fluorescence intensity at 450 nm (excitation wavelength of 360 nm) in a 384-plate for 1 h at 37 °C with and without the conjugate at 10 µM concentration. CA-4 (6 µM) and Vincristine (3 µM) were used as the positive control, whereas paclitaxel (3 µM) was used as the negative control.
Tubulin polymerization is a dynamic process by enhancement of fluorescence intensity due to the combination of a fluorescent reporter into the microtubules as polymerization occurs. Tubulin polymerization was performed by using a purified brain tubulin polymerization kit purchased from Cytoskeleton (BK110P, Denver, CO, USA). The tubulin polymerization assay was monitored by the increase in fluorescence over a 60 min period at 37 °C, with excitation at 360 nm and emission at 450 nm. The final buffer concentration for tubulin polymerization contained 80 mM PIPES, pH 6.9; 2 mM MgCl2; 0.5 mM EGTA; […]; and 15% glycerol. Firstly, 5 µL of the test compounds (final concentration of 10 µM) was added and then warmed to 37 °C for 1 min. The reaction was initiated by adding 50 µL of the tubulin reaction mix as specified for 6 min.

[2] = tested on: MCF-7 (breast cancer cell line); assay: In vitro cytotoxicity, MTT assay, MCF-7; format: cell-based, human
Experimental: (§1) The resultant compounds were tested for their in vitro cytotoxic activity by MTT assay against breast (MCF-7), cervical (SiHa), and prostate (PC-3) cancer cell lines, and the human embryonic kidney cell line (HEK). […] Subsequently, SAR studies were done by investigating the effect of substituents on cytotoxic activity.
(§2) Human cervical cancer cell line SiHa, human breast cancer cell line MCF-7, human prostate cancer cell line PC-3, and human embryonic kidney HEK-293 cells were procured from the National Centre for Cell Sciences (NCCS) Pune, India. In this experiment, antibiotics (100 units/mL penicillin and 100 mg L^−1 streptomycin were grown as a monolayer culture in Dulbecco’s modified Eagle’s medium containing 10% fetal bovine serum) were cultured in a humidified atmosphere of 5% CO2 at 37 °C in T-75 flasks and subcultured twice a week.
(§3) The cytotoxic effects of the selected compounds were evaluated by MTT assay on the above-mentioned cell lines. Initially, 2 × 10^4 cells/well were seeded into 96-well plates (150 µL/well) in triplicates and allowed to grow. The cells were incubated for 24 h and subsequently treated with varying concentrations of the compounds. After 48 h, the cells were incubated with 20 μL of MTT (5 mg/mL in PBS) in a fresh medium for 4 h at 37 °C. MTT is a metabolic substrate that is reduced to give formazan crystals, which were solubilized in DMSO (150 µL/well) and analyzed by reading the absorbance at 540 nm after 15 min of the incubation period on the iMark Microplate Reader (Bio-Rad). Percentage viability and IC50 values were used to determine the relative absorbance of treated versus control (untreated) cells.

[3] = tested on: SiHa (cervical cancer cell line); assay: In vitro cytotoxicity, MTT assay, SiHa; format: cell-based; conditions: Homo sapiens, 48 h, read-out: IC50 SiHa
Experimental: as §1, §2, §3

[4] = tested on: PC-3 (prostate cancer cell line); assay: In vitro cytotoxicity, MTT assay, PC-3; format: cell-based; conditions: Homo sapiens, 48 h, read-out: IC50 PC3
Experimental: as §1, §2, §3

[5] = tested on: HEK-293 (human embryonic kidney cells); assay: In vitro cytotoxicity, MTT assay, HEK-293 normal cells; format: cell-based; conditions: for IC50: read-out: IC50 HEK-293
Experimental: as §1, §2, §3

[6] = Homo sapiens, MCF7, MTT, 48 h, breast cancer, read-out: IC50 MCF-7
[7] = HEK293, MTT, 48 h, human normal cell line

melting point: 168 to 170 °C
Structure (SMILES): O=C(/C=C/c1cn(-c2ccccc2)nc1-c1ccc(OCc2ccccc2)cc1)c1ccc(F)cc1 [Compound 5f, (E)-3-(3-(4-(benzyloxy)phenyl)-1-phenyl-1H-pyrazol-4-yl)-1-(4-fluorophenyl)prop-2-en-1-one]

melting point: 203 to 205 °C
Structure (SMILES): O=C(/C=C/c1cn(-c2ccccc2)nc1-c1ccc(OCc2ccccc2)cc1)c1cccc([N+](=O)[O-])c1 [Compound 5c, (E)-3-(3-(4-(benzyloxy)phenyl)-1-phenyl-1H-pyrazol-4-yl)-1-(3-nitrophenyl)prop-2-en-1-one]

Structure (SMILES): O=C(/C=C/c1cn(-c2ccccc2)nc1-c1ccc(OCc2ccccc2)cc1)c1ccc(Cl)cc1 [Compound 5e, (E)-3-(3-(4-(benzyloxy)phenyl)-1-phenyl-1H-pyrazol-4-yl)-1-(4-chlorophenyl)prop-2-en-1-one]
inhibition at 10 µM [1]: 48.4%
IC50 [2, 6]: 11.5 ± 1.62 µM
IC50 ([3]; MTT, cervical cancer): 12.3 ± 1.32 µM
IC50 ([4]; MTT, prostate cancer): 9.68 ± 1.42 µM
IC50 [5, 7]: > 50 µM

Structure (SMILES): O=C(/C=C/c1cn(-c2ccccc2)nc1-c1ccc(OCc2ccccc2)cc1)c1ccc(C(F)(F)F)cc1 [Compound 5r, (E)-3-(3-(4-(benzyloxy)phenyl)-1-phenyl-1H-pyrazol-4-yl)-1-(4-(trifluoromethyl)Phenyl)prop-2-en-1-one]
inhibition at 10 µM [1]: 31.5%
IC50 [2, 6]: 14.8 ± 2.76 µM
IC50 ([3]; MTT, cervical cancer): > 50 µM
IC50 ([4]; MTT, prostate cancer): > 50 µM
IC50 [5, 7]: 38.3 ± 1.72 µM
melting point: 186 to 188 °C

Structure (SMILES): O=C(/C=C/c1cn(-c2ccccc2)nc1-c1ccc(OCc2ccccc2)cc1)c1cccc(O)c1 [Compound 5d, (E)-3-(3-(4-(benzyloxy)phenyl)-1-phenyl-1H-pyrazol-4-yl)-1-(3-hydroxyphenyl)prop-2-en-1-one]
inhibition at 10 µM [1]: 49.8%
IC50 [2, 6]: 4.1 ± 1.12 µM
IC50 ([3]; MTT, cervical cancer): 4.85 ± 0.89 µM
IC50 ([4]; MTT, prostate cancer): 2.97 ± 0.88 µM
IC50 [5, 7]: > 50 µM
melting point: 184 to 186 °C

melting point: 205 to 207 °C
Structure (SMILES): Cc1ccc(C(=O)/C=C/c2cn(-c3ccccc3)nc2-c2ccc(OCc3ccccc3)cc2)cc1 [Compound 5j, (E)-3-(3-(4-(benzyloxy)phenyl)-1-phenyl-1H-pyrazol-4-yl)-1-(p-tolyl)prop-2-en-1-one]

Structure (SMILES): O=C(/C=C/c1cn(-c2ccccc2)nc1-c1ccc(OCc2ccccc2)cc1)c1ccc([N+](=O)[O-])cc1 [Compound 5i, (E)-3-(3-(4-(benzyloxy)phenyl)-1-phenyl-1H-pyrazol-4-yl)-1-(4-nitrophenyl)prop-2-en-1-one]
inhibition at 10 µM [1]: 28.4%
IC50 [2, 6]: 42.7 ± 0.34 µM
IC50 ([3]; MTT, cervical cancer): 34.5 ± 0.9 µM
IC50 ([4]; MTT, prostate cancer): 13.1 ± 1.6 µM
IC50 [5, 7]: 45.2 ± 2.6 µM
melting point: 223 to 225 °C

Structure (SMILES): O=C(/C=C/c1cn(-c2ccccc2)nc1-c1ccc(OCc2ccccc2)cc1)c1ccc(Cl)cc1Cl [Compound 5m, (E)-3-(3-(4-(benzyloxy)phenyl)-1-phenyl-1H-pyrazol-4-yl)-1-(2,4dichlorophenyl)prop-2-en-1-one]
inhibition at 10 µM [1]: 33.8%
IC50 [2, 6]: 17.1 ± 2.25 µM
IC50 ([3]; MTT, cervical cancer): 6.46 ± 1.52 µM
IC50 ([4]; MTT, prostate cancer): 11.2 ± 1.44 µM
IC50 [5, 7]: > 50 µM
melting point: 192 to 194 °C

Structure (SMILES): COc1ccc(C(=O)/C=C/c2cn(-c3ccccc3)nc2-c2ccc(OCc3ccccc3)cc2)c(OC)c1 [Compound 5p, (E)-3-(3-(4-(benzyloxy)phenyl)-1-phenyl-1H-pyrazol-4-yl)-1-(2,4-dimethoxyphenyl)prop-2-en-1-one]
inhibition at 10 µM [1]: 51.1%
IC50 [2, 6]: 3.45 ± 1.28 µM
IC50 ([3]; MTT, cervical cancer): 4.98 ± 0.54 µM
IC50 ([4]; MTT, prostate cancer): 6.52 ± 1.23 µM
IC50 [5, 7]: > 50 µM
melting point: 226 to 228 °C

melting point: 174 to 176 °C
Structure (SMILES): COc1ccc(C(=O)/C=C/c2cn(-c3ccccc3)nc2-c2ccc(OCc3ccccc3)cc2)c(Br)c1 [Compound 5q, (E)-3-(3-(4-(benzyloxy)phenyl)-1-phenyl-1H-pyrazol-4-yl)-1-(2-bromo-4-methoxyphenyl)prop-2-en-1-one]

Structure (SMILES): COc1ccc(/C=C\c2cc(OC)c(OC)c(OC)c2)cc1O [Combretastatin A-4, reference compound]
IC50 ([2]; Homo sapiens, MCF7, 48 h, read-out: IC50 MCF-7, MTT, 48 h, breast cancer): 4.12 to 5.23 µM
IC50 ([2]; read-out: IC50 MCF-7, MTT, 48 h, breast cancer, listed as CA-4): 4.12 ± 0.38 µM
IC50 [3]: 5.23 ± 0.85 µM
IC50 [4]: 3.86 ± 0.39 µM
IC50 ([5]; Homo sapiens, HEK293, 48 h): 19.2 ± 1.65 µM

Structure (SMILES): CC(=O)O[C@H]1C(=O)[C@@]2(C)[C@H]([C@H](OC(=O)c3ccccc3)[C@]3(O)C[C@H](OC(=O)[C@H](O)[C@@H](NC(=O)c4ccccc4)c4ccccc4)C(C)=C1C3(C)C)[C@]1(OC(C)=O)CO[C@@H]1C[C@@H]2O [Paclitaxel, paclitaxel, reference compound]
inhibition at 3 µM [1]: -25.7%

Structure (SMILES): COc1ccc(C(=O)/C=C/c2cn(-c3ccccc3)nc2-c2ccc(OCc3ccccc3)cc2)cc1 [Compound 5k, (E)-3-(3-(4-(benzyloxy)phenyl)-1-phenyl-1H-pyrazol-4-yl)-1-(4-methoxyphenyl)prop-2-en-1-one]
inhibition at 10 µM [1]: 32.8%
IC50 [2, 6]: 7.23 ± 0.74 µM
IC50 ([3]; MTT, cervical cancer): 5.65 ± 0.71 µM
IC50 ([4]; MTT, prostate cancer): 5.45 ± 0.94 µM
IC50 [5, 7]: > 50 µM
melting point: 187 to 189 °C

Structure (SMILES): O=C(/C=C/c1cn(-c2ccccc2)nc1-c1ccc(OCc2ccccc2)cc1)c1ccc(Cl)c(Cl)c1 [Compound 5l, (E)-3-(3-(4-(benzyloxy)phenyl)-1-phenyl-1H-pyrazol-4-yl)-1-(3,4-dichlorophenyl)prop-2-en-1-one]
inhibition at 10 µM [1]: 55.2%
IC50 [2, 6]: 8.23 ± 1.45 µM
IC50 ([3]; MTT, cervical cancer): 11.7 ± 2.83 µM
IC50 ([4]; MTT, prostate cancer): 5.84 ± 1.65 µM
IC50 [5, 7]: > 50 µM
melting point: 243 to 245 °C

Structure (SMILES): O=C(/C=C/c1cn(-c2ccccc2)nc1-c1ccc(OCc2ccccc2)cc1)c1ccc(O)cc1O [Compound 5n, (E)-3-(3-(4-(benzyloxy)phenyl)-1-phenyl-1H-pyrazol-4-yl)-1-(2,4-dihydroxyphenyl)prop-2-en-1-one]
inhibition at 10 µM [1]: 47.6%
IC50 [2, 6]: 6.98 ± 1.12 µM
IC50 ([3]; MTT, cervical cancer): 3.6 ± 0.45 µM
IC50 ([4]; MTT, prostate cancer): 3.56 ± 0.63 µM
IC50 [5, 7]: > 50 µM
melting point: 176 to 178 °C

Structure (SMILES): CC[C@]1(O)C[C@H]2CN(CCc3c([nH]c4ccccc34)[C@@](C(=O)OC)(c3cc4c(cc3OC)N(C=O)[C@H]3[C@@](O)(C(=O)OC)[C@H](OC(C)=O)[C@]5(CC)C=CCN6CC[C@]43[C@@H]65)C2)C1 [Vincristine, reference compound]
inhibition at 3 µM [1]: 75.5%

melting point: 182 to 184 °C
Structure (SMILES): O=C(/C=C/c1cn(-c2ccccc2)nc1-c1ccc(OCc2ccccc2)cc1)c1ccccc1Cl [Compound 5b, (E)-3-(3-(4-(benzyloxy)phenyl)-1-phenyl-1H-pyrazol-4-yl)-1-(2-chlorophenyl)prop-2-en-1-one]

Structure (SMILES): COc1ccc(C(=O)/C=C/c2cn(-c3ccccc3)nc2-c2ccc(OCc3ccccc3)cc2)cc1OC [Compound 5o, (E)-3-(3-(4-(benzyloxy)phenyl)-1-phenyl-1H-pyrazol-4-yl)-1-(3,4-dimethoxyphenyl)prop-2-en-1-one]
inhibition at 10 µM [1]: 66.4%
IC50 [2, 6]: 2.13 ± 0.8 µM
IC50 ([3]; MTT, cervical cancer): 4.34 ± 0.98 µM
IC50 ([4]; MTT, prostate cancer): 4.46 ± 0.53 µM
IC50 [5, 7]: > 50 µM
toxicity to the HEK cells ([5]; in words): did not exhibit significant toxicity
melting point: 206 to 208 °C

melting point: 178 to 180 °C
Structure (SMILES): O=C(/C=C/c1cn(-c2ccccc2)nc1-c1ccc(OCc2ccccc2)cc1)c1ccc(Br)cc1 [Compound 5g, (E)-3-(3-(4-(benzyloxy)phenyl)-1-phenyl-1H-pyrazol-4-yl)-1-(4-bromophenyl)prop-2-en-1-one]

melting point: 167 to 169 °C
Structure (SMILES): O=C(/C=C/c1cn(-c2ccccc2)nc1-c1ccc(OCc2ccccc2)cc1)c1ccc(O)cc1 [Compound 5h, (E)-3-(3-(4-(benzyloxy)phenyl)-1-phenyl-1H-pyrazol-4-yl)-1-(4-hydroxyphenyl)prop-2-en-1-one]
